# Publication PMC11358092, “Caspofungin enhances the potency of rifampin against Gram-negative bacteria” (Frontiers in Microbiology, 2024)
# Structures can show the parent of a compound that is named as a salt.
# Tested on: E. coli MG1655
# Assay: High-throughput screening of FDA-approved drug library for antibiotic adjuvants (growth inhibition, OD600)
# Format: cell-based, Escherichia coli
# Details: library drug alone, LB medium, 96-well, 8 h static culture at 37°C, relative to PMBN (positive) and DMSO (negative) controls, %, table head prints no unit
# Protocol: To screen for antibiotic adjuvants against GNB, […] library drugs or polymyxin B nonapeptide (PMBN, positive control) or dimethyl sulfoxide (DMSO, negative control). After 8 h of static culture at 37°C, the optical density at 600 nm (OD600) was measured using a microplate reader. Percentage inhibition was calculated as (ODN – ODX)/(ODN – ODP) × 100%, where ODX is the OD600 value for a test treated with drug X, and ODP and ODN are the OD600 values for the positive and negative control, respectively.
row,Compound,"Growth inhibition, Compound [%]"
1,Oc1ccc(Cl)cc1Cc1cc(Cl)ccc1O [Dichlorophen],95
2,C[C@@H](O)[C@H]1C(=O)N2C(C(=O)O)=C(S[C@@H]3CN[C@H](C(=O)N(C)C)C3)[C@H](C)[C@H]12 [Meropenem trihydrate],86
3,CCn1cc(C(=O)O)c(=O)c2cc(F)c(N3CCNC(C)C3)c(F)c21 (stereo not shown) [Lomefloxacin],99
4,NC[C@H]1O[C@H](O[C@H]2[C@H](O[C@@H]3O[C@H](CO)[C@@H](O)[C@H]3O)[C@@H](O)[C@H](N)C[C@@H]2N)[C@H](N)[C@@H](O)[C@@H]1O.O=S(=O)(O)O [Ribostamycin sulfate],110
5,NC[C@@H]1O[C@H](O[C@H]2[C@@H](O)[C@H](O[C@@H]3[C@@H](O)[C@H](N)C[C@H](N)[C@H]3O[C@H]3O[C@H](CO)[C@@H](O)[C@H](O)[C@H]3N)O[C@@H]2CO)[C@H](N)[C@@H](O)[C@@H]1O [Paromomycin Sulfate],108
6,CC1(C)S[C@@H]2[C@H](NC(=O)[C@H](N)c3ccccc3)C(=O)N2[C@H]1C(=O)OCOC(=O)[C@@H]1N2C(=O)C[C@H]2S(=O)(=O)C1(C)C [Sultamicillin],106
7,CS(=O)(=O)c1ccc([C@@H](O)[C@@H](CO)NC(=O)C(Cl)Cl)cc1 [Thiamphenicol],66
8,S=C=NCc1ccccc1 [Benzyl isothiocyanate],71
9,NC[C@H]1O[C@H](O[C@H]2[C@H](O)[C@@H](O[C@H]3O[C@H](CO)[C@@H](O)[C@H](N)[C@H]3O)[C@H](N)C[C@@H]2N)[C@H](N)C[C@@H]1O [Tobramycin],107
10,CSCC1CN(/N=C/c2ccc([N+](=O)[O-])o2)C(=O)O1 (stereo not shown) [Nifuratel],108
11,CO/N=C(\C(=O)N[C@@H]1C(=O)N2C(C(=O)O)=C(CSc3nnnn3C)CS[C@H]12)c1csc(N)n1.CO/N=C(\C(=O)N[C@@H]1C(=O)N2C(C(=O)O)=C(CSc3nnnn3C)CS[C@H]12)c1csc(N)n1.Cl [Cefmenoxime hydrochloride],96
12,Oc1c(Cl)cc(Cl)c2cccnc12 [Capitrol],118
13,Nc1nc(-n2cc(C(=O)O)c(=O)c3cc(F)c(N4CC(O)C4)c(Cl)c32)c(F)cc1F [Delafloxacin],105
14,C[C@@H]1CC[C@H]2[C@@H](C)C(=O)O[C@@H]3O[C@@]4(C)CC[C@@H]1[C@]32OO4 [Artemisinin],40
15,CC[C@H]1OC(=O)[C@H](C)[C@@H](O[C@H]2C[C@@](C)(OC)[C@@H](O)[C@H](C)O2)[C@H](C)[C@@H](O[C@@H]2O[C@H](C)C[C@H](N(C)C)[C@H]2O)[C@](C)(O)C[C@@H](C)CN[C@H](C)[C@@H](O)[C@]1(C)O [Azathramycin],114
16,CC(OC(=O)OC1CCCCC1)OC(=O)C1=C(CSc2nnnn2CCN(C)C)CS[C@@H]2[C@H](NC(=O)Cc3csc(N)n3)C(=O)N12.Cl.Cl (stereo partly shown) [Cefotiam Hexetil Hydrochloride],87
17,CN(C)c1ccc(O)c2c1C[C@H]1C[C@H]3[C@H](N(C)C)C(O)=C(C(N)=O)C(=O)[C@@]3(O)C(O)=C1C2=O [Minocycline hydrochloride],91
18,O=C(N/N=C/c1ccc([N+](=O)[O-])o1)c1ccc(O)cc1 [Nifuroxazide],102
19,CO/N=C(\C(=O)N[C@@H]1C(=O)N2C(C(=O)OCOC(=O)C(C)(C)C)=C(/C=C\c3scnc3C)CS[C@H]12)c1csc(N)n1 [Cefditoren pivoxil],73
20,CCCCCCCCc1ccc(CCC(N)(CO)CO)cc1 [Fingolimod hydrochloride],87

row,Compound,"Growth inhibition, Compound [%]"
1,CO[C@H]1/C=C/O[C@@]2(C)Oc3c(C)c(O)c4c(O)c(c5c(nc6cc(C)ccn65)c4c3C2=O)NC(=O)/C(C)=C\C=C\[C@H](C)[C@H](O)[C@@H](C)[C@@H](O)[C@@H](C)[C@H](OC(C)=O)[C@@H]1C [Rifaximin],108
2,C=C[C@]1(C)C[C@@H](OC(=O)CS[C@@H]2C[C@H]3CC[C@@H](C2)N3C)[C@]2(C)[C@H](C)CC[C@]3(CCC(=O)[C@H]32)[C@@H](C)[C@@H]1O [Retapamulin],97
3,CNC[C@H](O)[C@@H](O)[C@H](O)[C@H](O)CO.Nc1nc(-n2cc(C(=O)O)c(=O)c3cc(F)c(N4CC(O)C4)c(Cl)c32)c(F)cc1F [Delafloxacin meglumine],103
4,C[C@@H]1O[C@@H]1P(=O)(O)O [Fosfomycin Disodium],102
5,CC1(C)S[C@@H]2[C@H](NC(=O)C(C(=O)O)c3ccccc3)C(=O)N2[C@H]1C(=O)O (stereo partly shown) [Carbenicillin disodium],89
6,CCCCCCCCN=c1ccn(CCCCCCCCCCn2ccc(=NCCCCCCCC)cc2)cc1 [Octenidine Dihydrochloride],91
7,CC1(C)S[C@@H]2[C@H](NC(=O)Cc3ccccc3)C(=O)N2[C@H]1C(=O)O [Benzylpenicillin potassium],55
8,CN[C@@H]1[C@H](O)[C@H](NC)[C@H]2O[C@@]3(O)C(=O)C[C@@H](C)O[C@H]3O[C@@H]2[C@H]1O.Cl.Cl.O.O.O.O.O [Spectinomycin dihydrochloride pentahydrate],96
9,C[C@@H]1O[C@@H]1P(=O)(O)O.NC(CO)(CO)CO [Fosfomycin Tromethamine],104
10,Cc1nnc(SCC2=C(C(=O)O)N3C(=O)[C@@H](NC(=O)Cn4cnnn4)[C@H]3SC2)s1 [Cefazolin],102
11,CO[C@H]1/C=C/O[C@@]2(C)Oc3c(C)c(O)c4c(c3C2=O)C2=NC3(CCN(CC(C)C)CC3)NC2=C(NC(=O)/C(C)=C\C=C\[C@H](C)[C@H](O)[C@@H](C)[C@@H](O)[C@@H](C)[C@H](OC(C)=O)[C@@H]1C)C4=O [Rifabutin],94
12,NCC[C@H](O)C(=O)N[C@@H]1C[C@H](N)[C@@H](O[C@H]2O[C@H](CN)[C@@H](O)[C@H](O)[C@H]2O)[C@H](O)[C@H]1O[C@H]1O[C@H](CO)[C@@H](O)[C@H](N)[C@H]1O [Amikacin],105
13,CC1CCc2cc(F)cc3c(=O)c(C(=O)O)cn1c23 (stereo not shown) [Flumequine],108
14,[H]/N=C(\N/C(=N/[H])NCCCCCCNC(=N)NC(=N)Nc1ccc(Cl)cc1)Nc1ccc(Cl)cc1 [Chlorhexidine],101
15,CN[C@@H]1[C@H](O)[C@H](NC)[C@H]2O[C@@]3(O)C(=O)C[C@@H](C)O[C@H]3O[C@@H]2[C@H]1O.Cl.Cl [Spectinomycin dihydrochloride],92
16,Cc1cn([C@H]2C[C@H](F)[C@@H](CO)O2)c(=O)[nH]c1=O [3'-Deoxy-3'-fluorothymidine],70
17,COc1c(N2C[C@@H]3CCCN[C@@H]3C2)c(F)cc2c(=O)c(C(=O)O)cn(C3CC3)c12 [Moxifloxacin],101
18,CO[C@@]1(NC(=O)C(C(=O)O)c2ccc(O)cc2)C(=O)N2C(C(=O)O)=C(CSc3nnnn3C)CO[C@@H]21 (stereo partly shown) [Latamoxef sodium],94
19,CCN1CCN(C(=O)N[C@@H](C(=O)N[C@@H]2C(=O)N3[C@@H]2SC(C)(C)[C@@H]3C(=O)O)c2ccccc2)C(=O)C1=O [Piperacillin sodium salt],88
20,Nc1nc(F)nc2c1ncn2[C@@H]1O[C@H](COP(=O)(O)O)[C@@H](O)[C@@H]1O [Fludarabine Phosphate],43
